Values quoted from earlier work in patent US12269021B2, “Artificial protein catalyst” (Glytech, Inc., priority 2019, dated 2025).

Key:
[1] = tested on: αvβ3 and αvβ5 integrins; conditions: integrins overexpressed on the cancer cell surface
[2] = tested on: various cancer cell strains

## cRGD
[1]
  integrin inhibition: inhibits

## CC(C)=CCC/C(C)=C/CC/C(C)=C/COc1ccc2ccc(=O)oc2c1 [Umbelliprenin]
[2]
  cytotoxic activity: cytotoxic activity
